The supplement of paper PMC7224384

Columns and labels:
MDA-MB-453 [1] = assay: drug sensitivity score (DSS), single agent (DSS (weighted AUC score)); higher = more sensitive (stronger viability decrease); extreme values may be limits of the assay; conditions: BLU9931 0 nM; 72 h
Procedure, shortened: (§1)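 Drug sensitivity scores come from a weighted area under a four-parameter logistic fit to percent viability, normalised per plate to control wells. Viability was based on cellular ATP read with CellTiterGlo 2.0 after 72 h at 37 °C, 5% CO2. Each 384-well plate carried FIMM Oncology set compounds in singlicate at five 10-fold dilutions, with 2000 MDA-MB-453 cells per well in medium with or without an FGFR4 inhibitor at 100 nM final.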

MDA-MB-453 [2] = assay: drug sensitivity score (DSS), in combination with BLU9931 (DSS (weighted AUC score)); higher = more sensitive (stronger viability decrease); extreme values may be limits of the assay; conditions: BLU9931 100 nM; 72 h
Procedure, shortened: as §1

SMILES	drug sensitivity score (MDA-MB-453 [1])	drug sensitivity score (MDA-MB-453 [2])
Cc1cc(F)c(C(=O)Nc2cccc(-c3nncn3C(C)C)n2)cc1-n1cnc(C2CC2)c1 [Selonsertib]	0	0
COc1cccc2c1c(O)c(C(=O)N(C)c1ccc(C(F)(F)F)cc1)c(=O)n2C [Tasquinimod]	2.9	1.4
CC(=O)N(O)CCCCCNC(=O)CCC(=O)N(O)CCCCCNC(=O)CCC(=O)N(O)CCCCCN [Deferoxamine]	2.3	4.3
COc1ccc(CCc2nc3cc(-c4c(C)noc4C)ccc3n2C[C@H](C)N2CCOCC2)cc1Cl [SGC-CBP30]	9	9.1
Oc1ncnc2[nH]ncc12 [Allopurinol]	0.1	0.3
CC(C)C[C@H](NC(=O)[C@H](CCc1ccccc1)NC(=O)CN1CCOCC1)C(=O)N[C@@H](Cc1ccccc1)C(=O)N[C@@H](CC(C)C)C(=O)[C@@]1(C)CO1 [Carfilzomib]	24.5	22.9
COc1cc2c(NC3CCN(C(C)C)CC3)nc(N3CCC(F)(F)CC3)nc2cc1OCCCN1CCCC1 [UNC0642]	2.1	1.4
CC1(C)CC[C@]2(NC(=O)C(C)(F)F)CC[C@]3(C)[C@H](C(=O)C=C4[C@@]5(C)C=C(C#N)C(=O)C(C)(C)[C@@H]5CC[C@]43C)[C@@H]2C1 [Omaveloxolone]	14.3	13.5
CC(C)(C)NC(=O)[C@H]1CC[C@H]2[C@@H]3CC[C@H]4NC(=O)C=C[C@]4(C)[C@H]3CC[C@]12C [Finasteride]	0.3	0
O=C1CN2Cc3c(ccc(Cl)c3Cl)N=C2N1 [Anagrelide]	0	0
CS(=O)(=O)CCNCc1ccc(-c2ccc3ncnc(Nc4ccc(OCc5cccc(F)c5)c(Cl)c4)c3c2)o1 [Lapatinib]	6.5	7
O=C1c2c(O)ccc(O)c2C(=O)c2c(NCCNCCO)ccc(NCCNCCO)c21 [Mitoxantrone]	4.5	5.1
Cn1ncc(Cl)c1-c1cc(C(=O)N[C@H](CN)Cc2ccc(F)c(F)c2)oc1Cl [Uprosertib]	7.6	11.2
C=CC[C@@H]1/C=C(\C)C[C@H](C)C[C@H](OC)[C@H]2O[C@@](O)(C(=O)C(=O)N3CCCC[C@H]3C(=O)O[C@H](/C(C)=C/[C@@H]3CC[C@@H](O)[C@H](OC)C3)[C@H](C)[C@@H](O)CC1=O)[C@H](C)C[C@@H]2OC [Tacrolimus]	2.2	0.8
COc1cc(N2CCC(N3CCN(C)CC3)CC2)ccc1Nc1ncnc(Nc2ccccc2S(=O)(=O)C(C)C)n1 [ASP3026]	0.8	0.3
C[C@@H]1C=C2C(=O)O[C@@H]3CC[C@H](C1)[C@]23O [Galiellalactone]	7.4	7.7
CN(C(=O)c1ccc(F)cc1C(F)(F)F)C1CCN(c2nnc(-c3ccnn3C)c3ccccc23)CC1 [Taladegib]	1.6	1.1
